Test results: patent US11185528B2, “ALDA-1 treatment and prevention of pulmonary disease” (University of South Florida, priority 2018, dated 2021)

How the values were obtained:
[1] = tested on: hyperoxia-induced damage; assay: Example 5: mice exposed to hyperoxia 48 hours, lung lysate immunoblot; assay type: in vivo, C57BL/6 mice; settings: 20 μM via Alzet pumps
Method: C57BL/6 mice were pretreated with DMSO (control) and 20 μM Alda-1 (administered via Alzet pumps), then exposed to hyperoxia for 48 hours. The mice were divided into three groups: Room air, hyperoxia (48 hour)+DMSO, and hyperoxia (48 hour)+Alda-1. The lung tissues were harvested, and lysates evaluated by immunoblot analysis.

[2] = tested on: acute lung injury; assay: Example 6: mice exposed to 100% oxygen 48 hours, BAL fluid, Diff Kwik staining, H&E staining, western blot; assay type: in vivo, C57BL/6 mice; settings: 20 μM via osmotic pumps
Method: The C57BL/6 mice were embedded with osmotic pumps and continuously injected with either DMSO or Alda-1 (20 μM), then they were exposed to 100% oxygen 48 hours. The lung samples, as well as Bronchial Alveolar Lavage Fluid, were collected for the evaluation of infiltration of cytokines, inflammation, autophagy, and apoptosis by Diff Kwik staining, H&E staining, and western blot.

[3] = tested on: hyperoxia-induced acute lung injury; assay: Example 4: mice exposed to hyperoxia 48 hours, lung lysate immunoblot and BAL fluid analysis; assay type: in vivo, C57BL/6 mice; settings: 20 mM via alzet pumps
Method: C57BL/6 mice were exposed to hyperoxia for 48 hours with DMSO (Control) and Alda-1 (20 mM) via alzet pumps on the dorsal side of mice. The mice were divided into four groups: normoxia+DMSO (room air), normoxia+Alda-1, hyperoxia+DMSO, and hyperoxia+Alda-1. The lungs were harvested and the bronchoalveolar lavage (BAL) fluid was collected and analyzed by immunoblot and cytokine levels.

[4] = tested on: human microvascular endothelial cells (HMVECs); assay: MitoSOX mitochondrial ROS production; assay type: cell-based; settings: Example 1
Method: (§1) Cells obtained were human microvascular endothelial cells (HMVECs). Cell culture medium was EBM-2 containing 10% FBS plus antibiotics. Assays were MitoSOX, JC1, Histology, Western blot, and ALDH2 activity. Antibodies used were mouse anti-ALDH2 antibody, Cytochrome C, and Beclin (cell signaling).
(§2) HMVECs were seeded and, after reaching confluence, treated with DMSO and Alda-1. Cells were then exposed to normoxia or hyperoxia at different time points. After 24, 48, and 72 hours, cells were collected for mitochondrial analyses.

[5] = tested on: cytochrome C; assay: Western blot of whole cell lysate, cytochrome C; assay type: cell-based, human
Method: as §1, §2
The HMVEC-L cells were cultured and after reaching confluence (70%), were exposed to hyperoxia with or without Alda-1 for 48 hours. The concentration was determined by the proOX p100 sensor (Biospherix). After hyperoxia, the cell pellets were collected by centrifugation and the cell pellets were suspended in lysis buffer (20 mM Tris HCL, pH7.4, 150 mM Nacl, 0.5% Triton-x 100) and the supernatant was collected after centrifugation at high speed (14000 g) for 15 minutes at 4° C. The amount of protein was calculated by BCA assay kit (Pierce, Rockford, Ill.). […] The bands were developed by pierce EC1 (Thermo Fischer scientific) and films with protein bands were scanned and analyzed densitometrically by NIH ImageJ software. The ratio of protein to loading control was taken and analyzed in percentages.

[6] = tested on: human microvascular endothelial cells (HMVEC); assay: JC-1 staining, mitochondrial membrane potential; assay type: cell-based
Method: as §1, §2
HMVEC-L cells were maintained in a EGM-2 (Lonza) media supplemented with FBS (25 ml), Hydrocortisone (0.2 ml), hFGF-B (2.0 ml), VEGF (0.5 ml), R3 IGF-1 (0.5 ml), Ascorbic acid (0.5 ml), hEGF (0.5 ml), GA-1000 (0.5 ml) at 37° C. in a 5% carbon dioxide humidified incubator to maintain a sufficient cell growth. The HMVEC-L cells were plated at density of 1×10,000 cells in a cell view dish with glass bottom (Thomas scientific). When cells attained 70% confluency, they were exposed to hyperoxia for 48 hours with Alda-1 and without Alda-1. Following exposure to hyperoxia, the HMVEC-L cells were washed by HBSS solution (without Ca+ and Mg+) (Gibco). […] The live cell imaging was conducted using fluorescence microscopy (Olympus). The green and red images were captured in fluorescence and images were quantified by image J by red to green ratio.

[7] = biological target: T1, ALDH2 (Homo sapiens, UniProt P05091); assay: ALDH2 enzymatic activity assay (340 nm) on mitochondrial lysate of HMVEC; assay type: cell-based
T1 construct: Cells obtained were human microvascular endothelial cells (HMVECs); endogenous in cells; host or cells: HMVEC / HMVEC-L (human lung microvascular endothelial cells)
T1 sequence (P05091 18-517): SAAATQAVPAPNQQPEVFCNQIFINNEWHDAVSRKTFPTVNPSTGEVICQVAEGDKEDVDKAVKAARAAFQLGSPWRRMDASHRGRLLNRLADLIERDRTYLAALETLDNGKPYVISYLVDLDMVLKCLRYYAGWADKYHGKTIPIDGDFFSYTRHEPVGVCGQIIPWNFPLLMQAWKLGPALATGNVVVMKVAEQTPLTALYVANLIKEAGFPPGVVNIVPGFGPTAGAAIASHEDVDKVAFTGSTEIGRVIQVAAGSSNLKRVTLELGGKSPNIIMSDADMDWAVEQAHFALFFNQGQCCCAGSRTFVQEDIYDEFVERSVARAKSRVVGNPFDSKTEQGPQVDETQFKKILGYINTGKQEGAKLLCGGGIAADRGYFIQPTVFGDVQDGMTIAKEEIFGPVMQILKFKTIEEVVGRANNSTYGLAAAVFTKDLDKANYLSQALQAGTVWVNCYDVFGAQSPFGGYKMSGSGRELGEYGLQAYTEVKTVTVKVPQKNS
Method: as §1, §2
(§3) HMVEC's were preserved in EGM-2 MV media (Lonza, Wakersville, Md.) and supplemented with FBS (25 ml), Hydrocortisone (0.2 ml), hFGF-B (2.0 ml), VEGF (0.5 ml), R3 IGF-1 (0.5 ml), Ascorbic acid (0.5 ml), hEGF (0.5 ml), GA-1000 (0.5 ml) at 37° C. in a 5% carbon dioxide-humidified incubator to maintain sufficient cell growth. The cultured cells were validated for confluence (around 70%) and exposed to hyperoxia for 48 hours with and without Alda-1.
The enzymatic activity of ALDH2 was measured by transformation of acetaldehyde to acetic acid (Chen et al., 2008). The HMVEC-L cells were cultured as mentioned above, followed by 300 μl of buffer (10 mM DTT, 100 mM Tris-HCl pH 8.0, 20% glycerol, 1% Triton X-100) and centrifuged at 55000 g for 30 minutes at 4° C. […] The specificity of enzyme reaction was expressed as nmol NADH/minute/mg protein.

[8] = tested on: 4HNE; assay: Oxidative stress assay, 4HNE adduct competitive ELISA on whole cell lysate; assay type: cell-based, human; settings: HMVEC pretreated with 20 μM, hyperoxia 48 hours
Method: as §3
The samples of whole cell lysate (50 μg) were seeded in each well. Oxidative stress was measured by an oxiselect 4HNE adduct competitive ELISA kit (Cell Biolabs), according to the instructions of kit.

[9] = tested on: ALDH2; assay: Western blot of whole cell lysate, ALDH2 expression; assay type: cell-based, human; settings: HMVEC pretreated with 20 μM, hyperoxia 48 hours, normalized to β-actin
Method: (§4) The HMVEC-L cells were cultured and after reaching confluence (70%), were exposed to hyperoxia with or without Alda-1 for 48 hours. The concentration was determined by the proOX p100 sensor (Biospherix). After hyperoxia, the cell pellets were collected by centrifugation and the cell pellets were suspended in lysis buffer (20 mM Tris HCL, pH7.4, 150 mM Nacl, 0.5% Triton-x 100) and the supernatant was collected after centrifugation at high speed (14000 g) for 15 minutes at 4° C. The amount of protein was calculated by BCA assay kit (Pierce, Rockford, Ill.). Equivalent amount of protein (15 μg) subjected to SDS-PAGE using between 4-20% tris-glycine gel (Bio-rad) after which electro transfer with PVDF membrane was performed, followed by blocking in 5% skim milk with washes with TBST. The membranes were treated with primary and secondary antibodies. The bands were developed by pierce EC1 (Thermo Fischer scientific) and films with protein bands were scanned and analyzed densitometrically by NIH ImageJ software. The ratio of protein to loading control was taken and analyzed in percentages.

[10] = tested on: Bax; assay: Western blot of whole cell lysate, Bax; assay type: cell-based, human; settings: HMVEC pretreated with 20 μM, hyperoxia 48 hours, normalized to β-actin
Method: as §4

[11] = HMVECs, Example 1, hyperoxia, 24 and 48 hours

O=C(NCc1ccc2c(c1)OCO2)c1c(Cl)cccc1Cl [Alda-1, N-(1,3-Benzodioxol-5-ylmethyl)-2,6-dichlorobenzamid]
PTEN-induced kinase 1 (PINK1) level vs hyperoxic controls [1]: decrease | mitofusin 1 (MFN1) level in lung lysates vs hyperoxia only [1]: decreased levels | mitofusin 2 (MFN2) level in lung lysates vs hyperoxia only [1]: decreased levels | LC3B (western blot) [2]: reduced | NF-κB-p65 (western blot) [2]: reduced | autophagy [2]: decrease | cytochrome C release (western blot) [2]: reduced | cytokine and neutrophil infiltration and inflammation, DMSO mice vs Alda-1 mice [2]: more cytokine and neutrophil infiltration and elevated inflammation than mice treated with Alda-1 | inflammation [2]: decrease | oxidative stress [2]: decrease | Drp1 level in lung lysate vs DMSO [3]: decreased levels | OPA1 level in lung lysate vs DMSO [3]: decreased levels | infiltration of macrophages in BAL fluid vs DMSO [3]: less infiltration | mitochondrial ROS production [4]: suppressed | decrease in cytochrome C compared to hyperoxia without pretreatment ([5]; HMVEC pretreated with 20 μM, hyperoxia 48 hours, normalized to β-actin): 64% | Cytochrome C release [5, 11]: decreased | increase in mitochondrial membrane potential (JC-1 red to green ratio) compared to hyperoxia without treatment ([6]; HMVEC, 20 μM, hyperoxia 48 hours): 1.62 fold | mitochondrial membrane potential [6, 11]: rescued | increase in ALDH2 activity compared to hyperoxia without pretreatment ([7]; HMVEC mitochondrial extract, 20 μM, hyperoxia 48 hours): 45% | ALDH2 activity ([7]; HMVECs, Example 1, during both normoxia and hyperoxia): elevated | decrease in 4HNE accumulation compared to untreated HMVEC exposed to hyperoxia [8]: 26% | effect on ALDH2 expression in hyperoxia [9]: no effect | decrease in Bax compared to hyperoxia without pretreatment [10]: 25%
